29 compounds from US11046696B2, “Fused pyrimidine compound or salt thereof” (TAIHO PHARMACEUTICAL CO., LTD., priority 2016, dated 2021) can be followed below.

The data set in a line: Evaluation of stability in liver microsome. Conditions: mouse liver microsome, 1 μM, 37° C. for 30 minutes. On the technique in general: Microsomes from liver hold many membrane-bound enzymes, among them those of drug oxidation.

Method: Solutions of the test compounds in DMSO/acetonitrile (the final concentration of each test compound was 1 μM, the final concentration of DMSO was 0.01%, and the final concentration of acetonitrile was 1%) were individually added to a liver microsome mixture solution (mouse liver microsome with a final concentration of 0.25 mg/mL, a potassium phosphate buffer with a final concentration of 100 mM, and magnesium chloride with a final concentration of 3 mM), and each mixture was pre-incubated at 37° C. for 5 minutes. […] After incubation at 37° C. for 30 minutes, a double amount of ethanol was added thereto to terminate the reaction, thereby obtaining post-reaction samples. A double amount of ethanol was added to each of the remaining mixture solutions, and a NADPH-generating system was further added thereto, thereby obtaining pre-reaction samples. The pre-reaction samples and post-reaction samples were centrifuged at 2000×g, and their supernatant was filtered through a glass filter. Each filtrate was then introduced into LC-MS/MS, and MS/MS peaks of the test compounds were detected. From the ratio of the post-reaction MS/MS peak to the pre-reaction MS/MS peak of the test compounds, the percentage of the remaining test compounds (remaining %) was calculated.

Turning to `COCc1ccc(NC(=O)c2c(C#Cc3cncn3C)n(C3(C)CC3)c3ncnc(N)c23)cc1` [Example 93, 4-amino-N-(4-(methoxymethyl)phenyl)-6-((1-methyl-1H-imidazol-5-yl)ethynyl)-7-(1-methylcyclopropyl)-7H-pyrrolo[2,3-d]pyrimidine-5-carboxamide], the “Remaining (%)” value is listed as 53%.

On to `COCc1ccc(NC(=O)c2c(OCC3CCCO3)n(C3(C)CC3)c3ncnc(N)c23)cc1` (centres unmarked) [Example 135, 4-amino-N-(4-(methoxymethyl)phenyl)-7-(1-methylcyclopropyl)-6-((tetrahydrofuran-2-yl)methoxy)-7H-pyrrolo[2,3-d]pyrimidine-5-carboxamide], for which the “Remaining (%)” value is reported as 67%.

With `C=C(C)c1c(C(=O)Nc2ccc(COC)cc2)c2c(N)ncnc2n1C1(C)CC1` [Example 149, 4-amino-N-(4-(methoxymethyl)phenyl)-7-(1-methylcyclopropyl)-6-(prop-1-en-2-yl)-7H-pyrrolo[2,3-d]pyrimidine-5-carboxamide], the “Remaining (%)” value turned out to be 62%.

As to `COCc1ccc(NC(=O)c2c(C#Cc3ccn(C)n3)n(C3(C)CC3)c3ncnc(N)c23)cc1` [Example 92, 4-amino-N-(4-(methoxymethyl)phenyl)-6-((1-methyl-1H-pyrazol-3-yl)ethynyl)-7-(1-methylcyclopropyl)-7H-pyrrolo[2,3-d]pyrimidine-5-carboxamide], the “Remaining (%)” value is 67%.

As for `COCc1ccc(NC(=O)c2c(C#Cc3ccccc3)n(C3(C)CC3)c3ncnc(N)c23)cc1` [Example 162, 4-amino-N-(4-(methoxymethyl)phenyl)-7-(1-methylcyclopropyl)-6-(phenylethynyl)-7H-pyrrolo[2,3-d]pyrimidine-5-carboxamide], the “Remaining (%)” value worked out at 76%.

For the compound `CC(C)(C)n1cc(C(=O)Nc2ccc(-c3cc[nH]n3)cc2)c2c(N)ncnc21` [Example 80, N-(4-(1H-pyrazol-3-yl)phenyl)-4-amino-7-(tert-butyl)-7H-pyrrolo[2,3-d]pyrimidine-5-carboxamide], the “Remaining (%)” value came out at 50%.

For the compound `COCCN(C)CC#Cc1c(C(=O)Nc2ccc(COC)cc2)c2c(N)ncnc2n1C1(C)CC1` [Example 197, 4-amino-6-(3-((2-methoxyethyl)(methyl)amino)prop-1-yn-1-yl)-N-(4-(methoxymethyl)phenyl)-7-(1-methylcyclopropyl)-7H-pyrrolo[2,3-d]pyrimidine-5-carboxamide], the “Remaining (%)” value is 52%.

Consider `COCc1ccc(NC(=O)c2c(C)n(C(C)(C)C)c3ncnc(N)c23)cc1` [Example 60, 4-amino-7-(tert-butyl)-N-(4-(methoxymethyl)phenyl)-6-methyl-7H-pyrrolo[2,3-d]pyrimidine-5-carboxamide], for which the “Remaining (%)” value is recorded as 81%.

Take `COCc1ccc(NC(=O)c2c(C#Cc3cnc4cccnn34)n(C3(C)CC3)c3ncnc(N)c23)cc1` [Example 91, 4-amino-6-(imidazo[1,2-b]pyridazin-3-ylethynyl)-N-[4-(methoxymethyl)phenyl]-7-(1-methylcyclopropyl)-7H-pyrrolo[2,3-d]pyrimidine-5-carboxamide]: the “Remaining (%)” value stood at 65%.

As for `COCc1ccc(NC(=O)c2c(C#Cc3cnc4[nH]ccc4c3)n(C3(C)CC3)c3ncnc(N)c23)cc1` [Example 128, 6-((1H-pyrrolo[2,3-b]pyridin-5-yl)ethynyl)-4-amino-N-(4-(methoxymethyl)phenyl)-7-(1-methylcyclopropyl)-7H-pyrrolo[2,3-d]pyrimidine-5-carboxamide], the “Remaining (%)” value came out at 82%.

For `COCc1ccc(NC(=O)c2c(C#CCC3(O)CCC3)n(C3(C)CC3)c3ncnc(N)c23)cc1` [Example 103, 4-amino-6-(3-(1-hydroxycyclobutyl)prop-1-yn-1-yl)-N-(4-(methoxymethyl)phenyl)-7-(1-methylcyclopropyl)-7H-pyrrolo[2,3-d]pyrimidine-5-carboxamide], the “Remaining (%)” value is on record as 60%.

Consider `COCc1ccc(NC(=O)c2cn(C3(C4CC4)CC3)c3ncnc(N)c23)cc1` [Example 49, 7-{[1,1-bi(cyclopropane)]-1-yl}-4-amino-N-(4-(methoxymethyl)phenyl)-7H-pyrrolo[2,3-d]pyrimidine-5-carboxamide], for which the “Remaining (%)” value came to 67%.

On to `COCc1ccc(NC(=O)c2c(C#CCN3CCCCC3)n(C3(C)CC3)c3ncnc(N)c23)cc1` [Example 105, 4-amino-N-[4-(methoxymethyl)phenyl]-7-(1-methylcyclopropyl)-6-(3-(piperidin-1-yl)prop-1-yn-1-yl)-7H-pyrrolo[2,3-d]pyrimidine-5-carboxamide], for which the “Remaining (%)” value stood at 52%.

On to `COCc1ccc(NC(=O)c2c(C#CCC3CCOCC3)n(C3(C)CC3)c3ncnc(N)c23)cc1` [Example 152, 4-amino-N-(4-(methoxymethyl)phenyl)-7-(1-methylcyclopropyl)-6-(3-(tetrahydro-2H-pyran-4-yl)prop-1-yn-1-yl)-7H-pyrrolo[2,3-d]pyrimidine-5-carboxamide], for which the “Remaining (%)” value was 57%.

For `COCc1ccc(NC(=O)c2c(C#Cc3ccc(OC)nc3)n(C3(C)CC3)c3ncnc(N)c23)cc1` [Example 192, 4-amino-N-(4-(methoxymethyl)phenyl)-6-((6-methoxypyridin-3-yl)ethynyl)-7-(1-methylcyclopropyl)-7H-pyrrolo[2,3-d]pyrimidine-5-carboxamide], the “Remaining (%)” value is reported as 79%.

Regarding `COCc1ccc(NC(=O)c2c(-c3cccnc3)n(C3(C)CC3)c3ncnc(N)c23)cc1` [Example 61, 4-amino-N-(4-(methoxymethyl)phenyl)-7-(1-methylcyclopropyl)-6-(pyridin-3-yl)-7H-pyrrolo[2,3-d]pyrimidine-5-carboxamide], the “Remaining (%)” value was 81%.

For `COCc1ccc(NC(=O)c2c(C#Cc3ccc(N)nc3)n(C3(C)CC3)c3ncnc(N)c23)cc1` [Example 155, 4-amino-6-((6-aminopyridin-3-yl)ethynyl)-N-(4-(methoxymethyl)phenyl)-7-(1-methylcyclopropyl)-7H-pyrrolo[2,3-d]pyrimidine-5-carboxamide], the “Remaining (%)” value amounted to 64%.

With `COCc1ccc(NC(=O)c2c(-c3cnn(C)c3)n(C3(C)CC3)c3ncnc(N)c23)cc1` [Example 150, 4-amino-N-(4-(methoxymethyl)phenyl)-6-(1-methyl-1H-pyrazol-4-yl)-7-(1-methylcyclopropyl)-7H-pyrrolo[2,3-d]pyrimidine-5-carboxamide], the “Remaining (%)” value is listed as 78%.

As for `COCc1ccc(NC(=O)c2c(OC[C@@H]3CCCO3)n(C3(C)CC3)c3ncnc(N)c23)cc1` [Example 97, (S)-4-amino-N-(4-(methoxymethyl)phenyl)-7-(1-methylcyclopropyl)-6-((tetrahydrofuran-2-yl)methoxy)-7H-pyrrolo[2,3-d]pyrimidine-5-carboxamide], the “Remaining (%)” value was found to be 70%.

In the case of `COCc1ccc(NC(=O)c2c(C#Cc3cccnc3)n(C3(C)CC3)c3ncnc(N)c23)cc1` [Example 94, 4-amino-N-[4-(methoxymethyl)phenyl]-7-(1-methylcyclopropyl)-6-(pyridin-3-ylethynyl)-7H-pyrrolo[2,3-d]pyrimidine-5-carboxamide], the “Remaining (%)” value is reported as 60%.

Take `COCc1ccc(NC(=O)c2c(C#CC(C)(C)N)n(C3(C)CC3)c3ncnc(N)c23)cc1` [Example 134, 4-amino-6-(3-amino-3-methylbut-1-yn-1-yl)-N-(4-(methoxymethyl)phenyl)-7-(1-methylcyclopropyl)-7H-pyrrolo[2,3-d]pyrimidine-5-carboxamide]: the “Remaining (%)” value came out at 79%.

Turning to `COCc1ccc(NC(=O)c2c(C#CCC3(O)COC3)n(C3(C)CC3)c3ncnc(N)c23)cc1` [Example 125, 4-amino-6-(3-(3-hydroxyoxetan-3-yl)prop-1-yn-1-yl)-N-(4-(methoxymethyl)phenyl)-7-(1-methylcyclopropyl)-7H-pyrrolo[2,3-d]pyrimidine-5-carboxamide], the “Remaining (%)” value was determined as 74%.

With `COCc1ccc(NC(=O)c2c(C#Cc3cccc(NCc4ccncc4)c3)n(C3(C)CC3)c3ncnc(N)c23)cc1` [Example 122, 4-amino-N-(4-(methoxymethyl)phenyl)-7-(1-methylcyclopropyl)-6-((3-((pyridin-4-ylmethyl)amino)phenyl)ethynyl)-7H-pyrrolo[2,3-d]pyrimidine-5-carboxamide], the “Remaining (%)” value came to 62%.

In the case of `COCc1ccc(NC(=O)c2cn(C3(C(F)F)CC3)c3ncnc(N)c23)cc1` [Example 46, 4-amino-7-(1-(difluoromethyl)cyclopropyl)-N-(4-(methoxymethyl)phenyl)-7H-pyrrolo[2,3-d]pyrimidine-5-carboxamide], the “Remaining (%)” value was determined as 65%.

As to `COCc1ccc(NC(=O)c2c(C#Cc3c(C)noc3C)n(C3(C)CC3)c3ncnc(N)c23)cc1` [Example 184, 4-amino-6-((3,5-dimethylisoxazol-4-yl)ethynyl)-N-(4-(methoxymethyl)phenyl)-7-(1-methylcyclopropyl)-7H-pyrrolo[2,3-d]pyrimidine-5-carboxamide], the “Remaining (%)” value was determined as 58%.

For `COCc1ccc(NC(=O)c2c(-c3ccc(NC(C)=O)nc3)n(C3(C)CC3)c3ncnc(N)c23)cc1` [Example 147, 6-(6-acetamidopyridin-3-yl)-4-amino-N-(4-(methoxymethyl)phenyl)-7-(1-methylcyclopropyl)-7H-pyrrolo[2,3-d]pyrimidine-5-carboxamide], the “Remaining (%)” value amounted to 68%.

Take `COCc1ccc(NC(=O)c2c(-c3ccc(O)cc3)n(C3(C)CC3)c3ncnc(N)c23)cc1` [Example 148, 4-amino-6-(4-hydroxyphenyl)-N-(4-(methoxymethyl)phenyl)-7-(1-methylcyclopropyl)-7H-pyrrolo[2,3-d]pyrimidine-5-carboxamide]: the “Remaining (%)” value was determined as 61%.

On to `COCc1ccc(NC(=O)c2c(C#CCN3CC[S+]([O-])CC3)n(C3(C)CC3)c3ncnc(N)c23)cc1` [Example 178, 4-amino-N-(4-(methoxymethyl)phenyl)-7-(1-methylcyclopropyl)-6-(3-(1-oxidethiomorpholino)prop-1-yn-1-yl)-7H-pyrrolo[2,3-d]pyrimidine-5-carboxamide], for which the “Remaining (%)” value stood at 88%.

Consider `COCc1ccc(NC(=O)c2c(-c3ccc(N4CCN(C)CC4)cc3)n(C3(C)CC3)c3ncnc(N)c23)cc1` [Example 171, 4-amino-N-(4-(methoxymethyl)phenyl)-7-(1-methylcyclopropyl)-6-(4-(4-methylpiperazin-1-yl)phenyl)-7H-pyrrolo[2,3-d]pyrimidine-5-carboxamide], for which the “Remaining (%)” value is 77%.
